Data: patent US20100056565A1, “Heterocyclic Derivatives as M3 Muscarinic Receptors” (priority 2007, published 2010)
Counter-ions that a name gives are not always drawn. Like-named read-outs stand apart in the source and are kept apart here.

What was measured:
[1] = molecular target: T1, human muscarinic receptors (M3) (Homo sapiens, UniProt P20309); experiment: Muscarinic receptor radioligand binding assay, [3H]-NMS, filter plate format
T1 construct: purchased
Experimental: Radioligand binding studies utilising [^3H]-N-methyl scopolamine ([^3H]-NMS) and commercially available cell membranes expressing the human muscarinic receptors (M2 and M3) were used to assess the affinity of muscarinic antagonists for M2 and M3 receptors. Membranes in TRIS buffer were incubated in 96-well plates with [^3H]-NMS and M3 antagonist at various concentrations for 3 hours. Membranes and bound radioligand were then harvested by filtration and allowed to dry overnight. Scintillation fluid was then added and the bound radioligand counted using a Canberra Packard Topcount scintillation counter

[2] = molecular target: T2, Recombinant human M3 receptor (Homo sapiens, UniProt P20309); experiment: biochemical; assay type: binding
T2 construct: expressed in transfected cells; host or cells: CHO-K1 cells (membranes)

[3] = filter plate format, read-out: M3 Ki (Filter plate format)
[4] = SPA format, read-out: M3 Ki (SPA format)
[5] = M3, filter plate assay, read-out: Ki value in the filter plate assay

T2 sequence (P20309 whole entry): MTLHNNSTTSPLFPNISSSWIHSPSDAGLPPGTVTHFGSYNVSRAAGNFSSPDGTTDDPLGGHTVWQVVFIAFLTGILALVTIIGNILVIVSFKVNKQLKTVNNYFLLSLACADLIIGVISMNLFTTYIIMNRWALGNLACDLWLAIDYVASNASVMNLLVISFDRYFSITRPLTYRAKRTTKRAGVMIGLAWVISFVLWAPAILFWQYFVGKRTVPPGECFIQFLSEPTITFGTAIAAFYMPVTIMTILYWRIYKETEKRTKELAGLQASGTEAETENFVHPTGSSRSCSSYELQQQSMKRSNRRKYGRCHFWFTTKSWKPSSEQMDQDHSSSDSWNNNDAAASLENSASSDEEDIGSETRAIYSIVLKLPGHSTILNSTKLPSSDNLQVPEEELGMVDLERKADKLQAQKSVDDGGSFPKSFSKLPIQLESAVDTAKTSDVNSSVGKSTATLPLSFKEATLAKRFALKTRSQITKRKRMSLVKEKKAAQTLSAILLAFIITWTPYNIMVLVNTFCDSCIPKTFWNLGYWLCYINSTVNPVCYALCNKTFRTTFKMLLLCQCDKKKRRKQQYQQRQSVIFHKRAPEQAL
T1 sequence (P20309 whole entry): as above

| SMILES | Ki [2, 4] | also measured |
| --- | --- | --- |
| OC(c1ccccc1)(c1ccccc1)c1ncc(C[N+]23CCC(CC2)C(Oc2ccccc2)C3)o1 (single isomer, unassigned; enantiomer 1) [Example 1, 1-[2-(Hydroxy-diphenyl-methyl)-oxazol-5-ylmethyl]-3-phenoxy-1-azoniabicyclo[2.2.2]octane bromide, enantiomer 1] | > 20 nM | Ki [1, 3]: > 20 nM |
| OC(c1ccccc1)(c1ncc(C[N+]23CCC(CC2)C(Oc2ccccc2)C3)o1)C1CCCCC1 (single isomer, unassigned; enantiomer 1) [Example 3, 1-[2-[(RS)—(Cyclohexyl-hydroxy-phenyl-methyl)]-oxazol-5-ylmethyl]-3-phenoxy-1-azonia-bicyclo[2.2.2]octane bromide, enantiomer 1] |  | Ki [1, 3]: 5 to 20 nM |
| OC(c1ccccc1)(c1ccccc1)c1ncc(C[N+]23CCC(CC2)C(Oc2ccccc2)C3)o1 (single isomer, unassigned; enantiomer 2) [Example 2, 1-[2-(Hydroxy-diphenyl-methyl)-oxazol-5-ylmethyl]-3-phenoxy-1-azoniabicyclo[2.2.2]octane bromide, enantiomer 2] | < 5 nM | Ki [1, 5]: 0.9 nM; Ki [1, 3]: < 5 nM |
| OC(c1ccccc1)(c1ncc(C[N+]23CCC(CC2)C(Oc2ccccc2)C3)o1)C1CCCCC1 (single isomer, unassigned; enantiomer 2) [Example 4, 1-[2-[(RS)—(Cyclohexyl-hydroxy-phenyl-methyl)]-oxazol-5-ylmethyl]-3-phenoxy-1-azonia-bicyclo[2.2.2]octane bromide, enantiomer 2] |  | Ki [1, 5]: 2 nM; Ki [1, 3]: < 5 nM |
| O=C(O[C@@H]1C[N+]2(Cc3cnc([C@](O)(c4ccccc4)C4CCCCC4)o3)CCC1CC2)c1ccccc1 [Example 10, (S)-3-benzoyloxy-1-[2-((R)-cyclohexyl-hydroxy-phenyl-methyl)-oxazol-5-ylmethyl]-1-azonia-bicyclo[2.2.2]octane; formate] |  | Ki ([1]; M3 Ki (Filter plate format), filter plate format): 5 to 20 nM; Ki ([2]; M3 Ki (SPA format, SPA format)): 5 to 20 nM |
| O[C@](c1ccccc1)(c1ncc(C[N+]23CCC(c4ccccc4)(CC2)CC3)o1)C1CCCCC1 [Example 11, 1-[2-((R)-cyclohexyl-hydroxy-phenyl-methyl)-oxazol-5-ylmethyl]-4-phenyl-1-azonia-bicyclo[2.2.2]octane; formate] | > 20 nM | Ki [1, 3]: > 20 nM |
| C=C(C)CO[C@H]1C[N+]2(Cc3cnc([C@](O)(c4ccccc4)C4CCCCC4)o3)CCC1CC2 [Example 112, (R)-1-[2-((R)—Cyclohexyl-hydroxy-phenyl-methyl)-oxazol-5-ylmethyl]-3-(2-methyl-allyloxy)-1-azonia-bicyclo[2.2.2]octane; bromide] | < 5 nM |  |
| C/C=C/CO[C@H]1C[N+]2(Cc3cnc([C@](O)(c4ccccc4)C4CCCCC4)o3)CCC1CC2 [Example 113, (R)-3-[((E)-But-2-enyl)oxy]-1-[2-((R)-cyclohexyl-hydroxy-phenyl-methyl)-oxazol-5-ylmethyl]-1-azonia-bicyclo[2.2.2]octane; bromide] | < 5 nM |  |
| OC(c1ccccc1)(c1ccccc1)c1ncc(C[N+]23CCC(CC2)[C@@H](Oc2ccsc2)C3)o1 [Example 114, (R)-1-[2-(Hydroxy-diphenyl-methyl)-oxazol-5-ylmethyl]-3-(thiophen-3-yloxy)-1-azonia-bicyclo[2.2.2]octane; bromide] | 5 to 20 nM |  |
| OC(c1ccccc1)(c1ccccc1)c1noc(C[N+]23CCC(CC2)[C@@H](Oc2ccsc2)C3)n1 [Example 115, (R)-1-[3-(Hydroxy-diphenyl-methyl)-[1,2,4]oxadiazol-5-ylmethyl]-3-(thiophen-3-yloxy)-1-azonia-bicyclo[2.2.2]octane; chloride] | < 5 nM |  |
| OC(c1ccccc1)(c1ccccc1)c1noc(C[N+]23CCC(CC2)[C@@H](Oc2cccs2)C3)n1 [Example 116, (R)-1-[3-(Hydroxy-diphenyl-methyl)-[1,2,4]oxadiazol-5-ylmethyl]-3-(thiophen-2-yloxy)-1-azonia-bicyclo[2.2.2]octane; chloride] | < 5 nM |  |
| OC(c1ccccc1)(c1ccccc1)c1noc(C[N+]23CCC(CC2)[C@@H](Oc2cccc(Cl)c2)C3)n1 [Example 117, (R)-3-(3-Chloro-phenoxy)-1-[3-(hydroxy-diphenyl-methyl)-[1,2,4]oxadiazol-5-ylmethyl]-1-azonia-bicyclo[2.2.2]octane; chloride] | < 5 nM |  |
| OC(c1ccccc1)(c1ccccc1)c1noc(C[N+]23CCC(CC2)[C@@H](Sc2ccccc2)C3)n1 [Example 118, (R)-1-[3-(Hydroxy-diphenyl-methyl)-[1,2,4]oxadiazol-5-ylmethyl]-3-phenylsulfanyl-1-azonia-bicyclo[2.2.2]octane; chloride] | < 5 nM |  |
| O[C@](c1ccccc1)(c1ncc(C[N+]23CCC(CC2)[C@@H](SC2CCCCC2)C3)o1)C1CCCCC1 [Example 119, (R)-1-[2-((R)—Cyclohexyl-hydroxy-phenyl-methyl)-oxazol-5-ylmethyl]-3-cyclohexylsulfanyl-1-azonia-bicyclo[2.2.2]octane; bromide] | < 5 nM |  |
| CC(C)CS[C@H]1C[N+]2(Cc3cnc([C@](O)(c4ccccc4)C4CCCCC4)o3)CCC1CC2 [Example 120, (R)-1-[2-((R)—Cyclohexyl-hydroxy-phenyl-methyl)-oxazol-5-ylmethyl]-3-isobutylsulfanyl-1-azonia-bicyclo[2.2.2]octane; bromide] | < 5 nM |  |
| O[C@](c1ccccc1)(c1nnc(C[N+]23CCC(CC2)[C@H](CSc2ccccc2)C3)o1)C1CCCCC1 [Example 121, (S)-1-[5-((R)—Cyclohexyl-hydroxy-phenyl-methyl)-[1,3,4]oxadiazol-2-ylmethyl]-3-phenylsulfanylmethyl-1-azonia-bicyclo[2.2.2]octane; bromide] | < 5 nM |  |
| O[C@](c1ccccc1)(c1nnc(C[N+]23CCC(CC2)[C@@H](Oc2cccc(F)c2)C3)o1)C1CCCCC1 [Example 134, (R)-1-[5-((R)—Cyclohexyl-hydroxy-phenyl-methyl)-[1,3,4]oxadiazol-2-ylmethyl]-3-(3-fluoro-phenoxy)-1-azonia-bicyclo[2.2.2]octane; bromide] | < 5 nM |  |
| OC(c1ccccc1)(c1ccccc1)c1noc(C[N+]23CCC(CC2)[C@@H](Oc2ccc4c(c2)OCO4)C3)n1 [Example 135, (R)-3-(Benzo[1,3]dioxol-5-yloxy)-1-[3-hydroxy-diphenyl-methyl)-[1,2,4]oxadiazol-5-ylmethyl]-1-azonia-bicyclo[2.2.2]octane; chloride] | < 5 nM |  |
| OC(c1ccccc1)(c1ccccc1)c1noc(C[N+]23CCC(CC2)[C@@H](Oc2ccc(Cl)cc2)C3)n1 [Example 136, (R)-3-(4-Chloro-phenoxy)-1-[3-(hydroxy-diphenyl-methyl)-[1,2,4]oxadiazol-5-ylmethyl]-1-azonia-bicyclo[2.2.2]octane; chloride] | < 5 nM |  |
| OC(c1ccccc1)(c1ccccc1)c1noc(C[N+]23CCC(CC2)[C@@H](Oc2cccc(C(F)(F)F)c2)C3)n1 [Example 137, (R)-1-[3-(Hydroxy-diphenyl-methyl)-[1,2,4]oxadiazol-5-ylmethyl]-3-(3-trifluoromethyl-phenoxy)-1-azonia-bicyclo[2.2.2]octane; chloride] | < 5 nM |  |
| OC(c1ccccc1)(c1ccccc1)c1noc(C[N+]23CCC(CC2)[C@@H](SC2CCCCC2)C3)n1 [Example 138, (R)-3-Cyclohexylsulfanyl-1-[3-(hydroxy-diphenyl-methyl)-[1,2,4]oxadiazol-5-ylmethyl]-1-azonia-bicyclo[2.2.2]octane; chloride] | < 5 nM |  |
| N#Cc1cccc(O[C@H]2C[N+]3(Cc4nc(C(O)(c5ccccc5)c5ccccc5)no4)CCC2CC3)c1 [Example 139, (R)-3-(3-Cyano-phenoxy)-1-[3-(hydroxy-diphenyl-methyl)-[1,2,4]oxadiazol-5-ylmethyl]-1-azonia-bicyclo[2.2.2]octane; chloride] | < 5 nM |  |
| O[C@](c1ccccc1)(c1nnc(C[N+]23CCC(CC2)[C@@H](OCc2ccc(F)cc2)C3)o1)C1CCCCC1 [Example 140, (R)-1-[5-((R)—Cyclohexyl-hydroxy-phenyl-methyl)-[1,3,4]oxadiazol-2-ylmethyl]-3-(4-fluoro-benzyloxy)-1-azonia-bicyclo[2.2.2]octane; bromide] | < 5 nM |  |
| OC(c1ccccc1)(c1ccccc1)c1noc(C[N+]23CCC(CC2)[C@@H](OCc2ccc(F)cc2)C3)n1 [Example 141, (R)-3-(4-Fluoro-benzyloxy)-1-[3-(hydroxy-diphenyl-methyl)-[1,2,4]oxadiazol-5-ylmethyl]-1-azonia-bicyclo[2.2.2]octane; chloride] | < 5 nM |  |
| O[C@](c1ccccc1)(c1nnc(C[N+]23CCC(CC2)[C@@H](Oc2ccc(F)cc2)C3)o1)C1CCCCC1 [Example 142, (R)-1-[5-((R)—Cyclohexyl-hydroxy-phenyl-methyl)-[1,3,4]oxadiazol-2-ylmethyl]-3-(4-fluoro-phenoxy)-1-azonia-bicyclo[2.2.2]octane; bromide] | < 5 nM |  |
